Experimental data taken from PubChem BioAssay (NCI).
“And” between values parts separate entries of the source, which are not always exact repeats. Identical values can stand only once.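 Growth conditions: 96-well plates. Treatment: test compound, 48 hours, 5 concentrations. Analysis: linear interpolation between bracketing concentrations; unreached endpoints set to highest concentration. GI50 is the concentration that inhibits growth by half. TGI: concentration producing complete growth inhibition.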

Columns and labels:
Experiment in all cases: DTP human tumour cell line panel, 48 h
A498 renal = tested on: A498 renal
A549 NSCLC = tested on: A549 NSCLC
CAKI-1 renal = tested on: CAKI-1 renal
COLO 205 colon = tested on: COLO 205 colon
DU-145 prostate = tested on: DU-145 prostate
EKVX NSCLC = tested on: EKVX NSCLC
K-562 leukemia = tested on: K-562 leukemia
LOX IMVI melanoma = tested on: LOX IMVI melanoma
OVCAR-8 ovarian = tested on: OVCAR-8 ovarian
SK-MEL-2 melanoma = tested on: SK-MEL-2 melanoma

Compound	GI50 (A498 renal) [µM]	TGI (A498 renal)	GI50 (A549 NSCLC) [µM]	TGI (A549 NSCLC)	GI50 (CAKI-1 renal) [µM]	TGI (CAKI-1 renal)	GI50 (COLO 205 colon) [µM]	TGI (COLO 205 colon) [µM]	GI50 (DU-145 prostate) [µM]	TGI (DU-145 prostate) [µM]	GI50 (EKVX NSCLC) [µM]	TGI (EKVX NSCLC) [µM]	GI50 (K-562 leukemia) [µM]	TGI (K-562 leukemia) [µM]	GI50 (LOX IMVI melanoma) [µM]	TGI (LOX IMVI melanoma)	GI50 (OVCAR-8 ovarian) [µM]	TGI (OVCAR-8 ovarian) [µM]	GI50 (SK-MEL-2 melanoma) [µM]	TGI (SK-MEL-2 melanoma)
O=C1Nc2ccc(CN3CCOC3=O)cc2/C1=C/c1cc(CN2CCOCC2)c[nH]1	> 45.2	> 100 µM	49.7	> 100 µM	26.3	> 100 µM	38.6	> 100	> 100	> 100	37.5	> 100	27.3	> 100	48.4	> 100 µM	33.7	> 100	39.2	> 100 µM
CC(C)C[C@H]1C(=O)N2CCC[C@H]2[C@]2(O)O[C@](NC(=O)[C@@H]3C=C4c5cccc6[nH]c(Br)c(c56)C[C@H]4N(C)C3)(C(C)C)C(=O)N12		> 100 µM		> 100 µM		> 100 µM		23.5		> 100		> 100		> 100		> 100 µM		> 100		> 100 µM
O=C(c1ccccc1)c1ccc(O)c2ncccc12	9.29	27.4 µM	9.02	> 100 µM	1.13	6.3 µM	23.9	95.7	5.72	27.6	3.09	56.1	3.4	> 100	1.87	13.1 µM	4.08	41	12	43.3 µM
C=C1C(=O)O[C@H]2[C@H]1CC/C(COC(=O)C(=O)c1c[nH]c3ccc(Cl)cc13)=C\CC[C@@]1(C)O[C@@H]21	2.75	5.54 µM	2.52	6.03 µM	2.81	10.9 µM	2.12	4.58	1.9	4.13	2.06	5.03	1.58	6.18	0.183	0.396 µM	2.32	6.82	1.94	4.23 µM
C/C(=C1/N=C(c2ccccc2)OC1=O)c1ccccc1		> 100 µM		> 100 µM		> 100 µM		> 100		> 100		> 100		> 100		> 100 µM		> 100		> 100 µM
CCCC(CCC)Oc1ccc(CCCC2=C(O)c3ccccc3C(=O)C2=O)cc1	7.21	20.1 µM	4.11	22.4 µM	2.46	8.66 µM	6.7	32.3	6.71	19	5.61	18	3.31	10.7	3.34	10.5 µM	10.2	69.7	6.85	28 µM
Cc1cc(S(=O)(=O)Nc2nc3ccccc3[nH]2)c(SCc2ccccc2)cc1Cl	> 100	> 100 µM	> 100	> 100 µM	2.1	6.1 µM	> 100	> 100	> 100	> 100	> 100	> 100	66.3	> 100	28.4	> 100 µM	37.5	> 100	> 100	> 100 µM
Cc1cccc2c(N=Nc3ccccc3[N+](=O)[O-])c(O)[nH]c12		> 38.3 µM		> 61.7 µM		16.3 µM		> 63.5		> 100		33.6		> 100		27.1 µM		> 38.2		> 71.1 µM
COc1cc2c(c(OC)c1OC)C(=O)c1c-2n(CCCN=[N+]=[N-])c(=O)c2cc([N+](=O)[O-])ccc12	14	54.1 µM	> 100	> 100 µM	60.6	> 100 µM	> 100	> 100	> 100	> 100	> 100	> 100	> 100	> 100	> 100	> 100 µM	72.3	> 100	22.8	70.7 µM
Oc1c(Cl)cc(CN(Cc2cc(Cl)c(O)c(Cl)c2)C2CCCCC2)cc1Cl		> 100 µM		> 100 µM		> 100 µM		> 100		> 100		> 100		> 100		> 100 µM		> 100		> 100 µM
COC1C(O)CC(OC2CC(OC3CC(O[C@@H]4C(=O)c5c(cc6cc(OC7CC(OC8CC(O)C(O)C(C)O8)C(O)C(C)O7)c(C)c(O)c6c5O)C[C@H]4[C@H](OC)C(=O)[C@@H](O)[C@@H](C)O)OC(C)C3O)OC(C)C2O)OC1C (some centres undefined)	< 0.01	0.0827 µM		> 100 µM		> 100 µM		0.0921		0.281		8.06	< 0.019	> 100	0.0164	> 100 µM		> 100		< 0.0205 µM
CCOc1ccc(NC(=O)c2cc3ccccc3cc2O)cc1	86.4	> 100 µM	> 100	> 100 µM	> 100	> 100 µM	> 100	> 100	> 100	> 100	> 100	> 100	52.5	> 100	58.1	> 100 µM	47.8	> 100	76.7	> 100 µM
O=C(O)c1nnsc1-c1csnn1		> 100 µM		> 100 µM		> 100 µM		> 100		> 100		> 100		> 100		> 100 µM		> 100		> 100 µM
Nc1cc(N)cc(Cc2ccccc2)c1		> 100 µM		> 100 µM		> 100 µM		> 100		> 100		> 100		> 100		> 100 µM		> 100		> 100 µM
COc1ccc(C2SCC(=O)N2NC(=O)C(O)c2ccccc2)cc1 (centres undefined)	> 100	> 100 µM	> 100	> 100 µM	> 100	> 100 µM	> 100	> 100	> 100	> 100	> 100	> 100	55.5	> 100	> 100	> 100 µM	> 100	> 100	> 100	> 100 µM
Cc1ccc(N(/C=C/C(=O)C(F)(F)F)CC(=O)c2ccc(Cl)c(Cl)c2)cc1	8.05	20.9 µM	9.37	21.3 µM	12.4	24.9 µM	10	21.6	5.77	20.3	3.54	18.9	3.37	11.7	10.1	21.8 µM	14.1	27.1	3.26	16.1 µM
c1ccc2c(-c3cnn4cc(-c5ccc(N6CCNCC6)cc5)cnc34)ccnc2c1	1.43	2.87 µM	0.766	1.99 µM	1.35	2.77 µM	1.42	2.81	0.739	2.06	1.89	3.76	0.226	0.696	1.27	2.58 µM	1.45	3.05	1.57	2.98 µM
Clc1ccc(N/N=C(\c2ccccc2)c2ccccn2)nc1	0.133	16.4 µM and > 100 µM		> 100 µM and 15.9 µM	0.172	2.3 µM and 16.7 µM	0.0308	18.1	0.243	> 100	0.0726		0.0406	> 100	0.246	4.48 µM	0.276		0.796	> 95.1 µM and 32.3 µM
CCOc1ccc2c(c1)C(=O)c1c-2n(CCCN)c(=O)c2cc([N+](=O)[O-])ccc12	0.679	2.06 µM	0.137	1.13 µM	0.0112	1.14 µM	0.361	2.11	< 0.0107	0.213	1.19	2.57			0.0144	1.15 µM	0.0168	0.147	1.53	3.27 µM
OCc1ncc(-c2ccccc2)s1	> 100	> 100 µM	> 100	> 100 µM	> 100	> 100 µM	> 100	> 100	> 100	> 100	> 100	> 100	> 100	> 100	> 100	> 100 µM	> 100	> 100	> 100	> 100 µM
CN(C)CCCN1c2ccc(O)cc2Sc2ccc(Cl)cc21		31.6 µM		28.6 µM		16 µM		39.3		31.8		35.9		16.8		20.2 µM		30.5		19 µM
CCOC(=O)Nc1ccc(C(=O)/C=C/c2ccccc2)cc1	26.1	72.6 µM	30.1	> 100 µM	79	> 100 µM	20.3	47.6	22.8	85.1	37.5	> 100	8.28	> 100	8.7	33.1 µM	33.5	> 100	25.9	69.7 µM
CCOC(=O)C(O)Cc1cnc2ccccc2n1 (centres undefined)		> 100 µM		> 100 µM		> 100 µM		> 100		> 100		> 100		> 100		> 100 µM		> 100		> 100 µM
COC(=O)c1ccc(NC(N)=NCC(C)(C)COc2ccc(C(F)(F)F)cc2)nc1	1.94	5.82 µM	1.63	3.17 µM			1.63	3.23	1.7	3.2	1.43	3.41							1.86	3.47 µM
COc1cccc2c1C(=O)c1c(O)c3c(c(O)c1C2=O)C[C@@](O)(C(C)=O)C[C@@H]3OC1CC(O)C(O)C(C)O1 (some centres undefined)		9.01 µM		6.31 µM and 10.4 µM		5.57 µM and 4.94 µM		27		8.55		27.2		14.5		3.77 µM and 2.6 µM				9.44 µM and 15.2 µM
O=C(Nc1cc(C(F)(F)F)cc(C(F)(F)F)c1)Nc1ccc(OCc2nnc(-c3ccc(Cl)cc3)o2)c(F)c1	1.91	6.5 µM	1.97	9.44 µM	2.72	15.8 µM	1.64	3.15	3.58	15.2			2.37	24.3	2.07	5.31 µM	1.6	5.73	2.73	6.26 µM
O=C(NCCNC(=O)c1ccc(F)cc1)Nc1ccc(-n2cc(-c3ccncc3)c(-c3ccc(Cl)c(O)c3)n2)cc1	0.336	2.83 µM	1.75	9.38 µM					0.411	> 100	1.36	> 100			0.425	2.49 µM	0.491	> 100	0.738	4 µM
CC(=O)N1N=C(c2ccc(Nc3nc(Nc4ccc(F)cc4)nc(Nc4ccc(Cl)cc4)n3)cc2)CC1c1ccc(N(C)C)cc1 (centres undefined)	14.4	50.5 µM	4.27	43 µM	9.28	> 54.3 µM	1.81	5.9	10.2	39	8.06	> 90.9	> 32.4	> 81.9	3.85	12.8 µM	3.75	23.4		
